Experimental data: patent US20090298708A1, “2'-DEOXY-2'-FLUORO-BETA-D-ARABINONUCLEOSIDE 5'-TRIPHOSPHATES AND THEIR USE IN ENZYMATIC NUCLEIC ACID SYNTHESIS” (priority 2006, published 2009)

Biological target: T1, MMLV-RT (Moloney murine leukemia virus, UniProt P03355)
T1 construct: Reverse transcriptases (RT): • MMLV-RT (MMLV or MM; source: Fermentas); purchased Fermentas
Assay: Primer extension assay with MMLV-RT
Format: biochemical
Design: key to Incorporation of three 2′F-araTTP / 2′F-araCTP (incorporation efficiency) / Enzymatic activity during primer extension reactions: ++++: excellent (no pausing observed); +++: very good (with slight pausing); ++: Good, full-length products with significant pausing; +: significant pausing, no full-length product but at least one 2′F-araN incorporation detected
Conditions: for Order of efficiency of incorporation: DNA template PF22 (T/U triphosphates) or PF24 (C triphosphates), three contiguous units; for Enzymatic activity during primer extension reactions: plus dATP, dGTP; for Incorporation of three 2′F-araTTP / 2′F-araCTP (incorporation efficiency): DNA template PF22 (2′F-araTTP) or PF24 (2′F-araCTP)
From the text: Primer extension assays were used to assess the incorporation of 2′F-araNTP on the various DNA templates (Table 1). The DNA primer (PF20) was first radioactively labeled at the 5′-hydroxyl terminus with a radioactive phosphorus probe and the enzyme T4 polynucleotide kinase (T4 PNK) (see Example 1 for General Methods). To assess the incorporation of 2′F-araNTPs, the primer and template were annealed, and the nucleoside 5′-triphosphates added in the presence of enzyme under the conditions specified in Table 2. Time points were obtained by analyzing small aliquots from the reaction mixture through polyacryamide gel electrophoresis (PAGE) and autoradiography.
Primer extension assays were used to assess the incorporation efficiency of contiguous 2′F-ara(T/C)TPs compared to 2′F-r(U/C)TP on a DNA template (e.g. PF22 or PF24). To this end, a DNA template (e.g. PF22: FIGS. 15, 16, 17A, 18, 21A; PF24: FIGS. 17B, 19, 20, 21B), primer and the appropriate NTPs (e.g. combination of dATP/dCTP/dGTP/ and NTP, where N=dT, 2′F-araT, 2′F-rU, or rU (FIGS. 15, 16, 17A, 18, 21A); or combination of dATP/dGTP/dTTP/ and NTP, where N=dC, 2′F-araC, 2′F-rC, or rC (FIGS. 17B, 19, 20, 21B)), were incubated in the presence one of MMLV-RT, 9N, HIV or DV polymerase. The protocols and conditions are described in Example 2 and Table 2.
Unless otherwise noticed in the Examples described below, the conditions used in the primer extension assays, such as dNTP concentration, reaction temperatures, concentration of Mg^2+, and reaction buffers (provided by the manufacturers, except for the HIV buffer which was prepared in-house) are shown in Table 2.
Primer extension assays were used to assess the incorporation of 2′F-araTTP on the DNA template (PF22). The DNA primer (PF20) was first radioactively labeled at the 5′-hydroxyl terminus with a radioactive phosphorus probe and the enzyme T4 polynucleotide kinase (T4 PNK) according to the manufacturer's specifications (MBI Fermentas Life Sciences, Burlington, ON). Incorporation of the ^32P label was accomplished in reaction mixtures consisting of DNA substrate (200 pmol), 2 μl loxreaction buffer (Buffer A for forward reaction: 500 mM Tris-HCl, pH 7.6 at 25° C., 100 mM MgCl2, 50 mM DTT, 1 mM spermidine and 1 mM EDTA), 1 μl T4 PNK enzyme solution (10 U/1 μl in a solution of 20 mM Tris-HCl, pH 7.5, 25 mM KCl, 0.1 mM EDTA, 2 mM DTT and 50% glycerol), 6 μl [γ-^32P]-ATP solution (6000 Ci/mmol, 10 mCi/ml; Amersham Biosciences, Inc.) and autoclaved sterile water to a final volume of 20 μl. The reaction mixture was incubated for about 45-60 min at 37° C., followed by a second incubation for 10 min at 95° C. to heat denature and deactivate the kinase enzyme. The solution was purified according to a standard protocol and the isolated yield of 5′-^32P-DNA following gel extraction averages 50%. The pure labeled samples were kept at −20° C. for future use.
Usually 2 or 3 folds of cold (unlabeled) DNA primer were combined with the radioactive primer. Then primer to template was mixed together with the final concentration at 85 nM for the primer and 255 nM for the template (i.e. the primer:template=1:3 molar ratio). The primer and template were heated at 95° C. for 5 min and annealed at 4° C. for at least two hours before use. In an Eppendorf tube, the following reagents, 5× or 10× buffer, nucleoside 5′-triphosphates (DATP, dGTP, dCTP, 2′F-araTTP at the same concentrations; see legend of FIG. 2), water, the primer and template mixture, were added together according to pre-calculated reaction volume (20 μL) and concentrations (see reaction conditions in Table 2). Mineral oil (20 μL) was usually used to prevent evaporation. The reaction mixture was incubated at either 37° C. or 55° C. and one of the various enzymes tested was added to initiate the primer extension reactions. […]

SMILES | Order of efficiency of incorporation (MMLV-RT, 37° C.) | Incorporation of three 2′F-araTTP / 2′F-araCTP (incorporation efficiency) (MMLV, 37° C.) | other results
O=c1ccn([C@@H]2O[C@H](COP(=O)(O)OP(=O)(O)OP(=O)(O)O)[C@@H](O)[C@H]2F)c(=O)[nH]1 [2′F-rUTP, 1-(2-deoxy-2-fluoro-β-D-ribo-furanosyl)uracil 5′-triphosphate, reference compound] | dTTP > 2′F-araTTP > 2′F-rUTP > UTP | – | –
Cc1cn([C@H]2C[C@H](O)[C@@H](COP(=O)(O)OP(=O)(O)OP(=O)(O)O)O2)c(=O)[nH]c1=O [dTTP, reference compound] | dTTP > 2′F-araTTP > 2′F-rUTP > UTP | – | –
Nc1ccn([C@H]2C[C@H](O)[C@@H](COP(=O)(O)OP(=O)(O)OP(=O)(O)O)O2)c(=O)n1 [dCTP] | dCTP~2′F-rCTP ≧ 2′F-araCTP > CTP | – | –
Nc1ccn([C@@H]2O[C@H](COP(=O)(O)OP(=O)(O)OP(=O)(O)O)[C@@H](O)[C@@H]2F)c(=O)n1 [2′F-araCTP, 1-(2-deoxy-2-fluoro-β-D-arabinofuranosyl)cytosine 5′-triphosphate] | dCTP~2′F-rCTP ≧ 2′F-araCTP > CTP | ++++ | Enzymatic activity during primer extension reactions (Example 3, DNA template PF24, 3x 2′F-araCTP, dTTP, MMLV, 37° C.): +++; premature products (MMLV-RT, DNA template PF24, after 60 mins, 37° C.): ca. 90%
Cc1cn([C@@H]2O[C@H](COP(=O)(O)OP(=O)(O)OP(=O)(O)O)[C@@H](O)[C@@H]2F)c(=O)[nH]c1=O [2′F-araTTP, 1-(2-deoxy-2-fluoro-β-D-arabino-furanosyl)thymine 5′-triphosphate] | dTTP > 2′F-araTTP > 2′F-rUTP > UTP | +++ | Enzymatic activity during primer extension reactions (Example 2, DNA template PF22, 3x 2′F-araTTP, dCTP, MMLV, 37° C.): +++; substrate property for MMLV (second incorporations of modified triphosphates) (MMLV, DNA template PF22, compared to 2′F-rUTP and rUTP): best substrate
Nc1ccn([C@@H]2O[C@H](COP(=O)(O)OP(=O)(O)OP(=O)(O)O)[C@@H](O)[C@H]2F)c(=O)n1 [2′F-rCTP, 1-(2-deoxy-2-fluoro-β-D-ribofuranosyl) cytosine 5′-triphosphate, reference compound] | dCTP~2′F-rCTP ≧ 2′F-araCTP > CTP | – | full-length product (MMLV-RT, DNA template PF24, 37° C.): ~100%
